Consider four compounds from patent publication US7301024B2, “Crystalline forms of gatifloxacin and processes for preparation” (Teva Pharmaceutical Industries Ltd., priority 2002, dated 2007).

The structures appear in SMILES notation.

A short description of data set [1]: solid-state form after storage at 40° C. and 75% relative humidity, analyzed by XRD. The class given is physicochemical. To be noted: 3 months. Here is the method:
As used in connection with the present invention, x-ray diffraction refers to x-ray diffraction by the powder diffraction technique (PXRD). X-ray powder diffraction analysis was performed using a Scintag powder diffractometer with variable goniometer, a Cu source, and a solid state detector. A standard round aluminum sample holder with zero background quartz plate was used. Samples were scanned from 2° to 40° 2θ at 3° per minute. Reflections are reported as peak maxima in the Intensity vs. 2θ plots, and are subject to the normal experimental error (uncertainty). Wet samples were promptly analyzed “as is,” i.e., without drying or grinding prior to the analysis.
Gatifloxacin form CH2 can also be made by heating form Ω to between about 25° C. and about 50° C. at a relative humidity of about 60% to about 80%, preferably for at least about one month. Gatifloxacin so formed is a mixture of form Ω and form CH2.
4. Gatifloxacin form Ω (3 g) was heated to 40° C. at 75% of relative humidity for 3 months.

The conditions of data set [2]: sesquihydrate compared with hemihydrate; cited from earlier work.
The conditions of data set [3]: room temperature; compared with the other crystalline forms of U.S. Pat. No. 6,413,969; cited from earlier work.
The conditions of data set [4]: compared with the other crystalline forms of U.S. Pat. No. 6,413,969; cited from earlier work.
The conditions of data set [5]: compared with hemihydrate; cited from earlier work.

Turning to `COc1c(N2CCNC(C)C2)c(F)cc2c(=O)c(C(=O)O)cn(C3CC3)c12` (racemic) [form Ω, (±)-1-cyclopropyl-6-fluoro-1,4-dihydro-8-methoxy-7-(3-methyl-1-piperazinyl)-4-oxo-3-quinolinecarboxylic acid], the “crystalline form found by XRD after storage” value in data set [1] is “mixture of gatifloxacin form Ω and form CH2”.

Take `COc1c(N2CCNC(C)C2)c(F)cc2c(=O)c(C(=O)O)cn(C3CC3)c12` (racemic) [hemihydrate, (±)-1-cyclopropyl-6-fluoro-1,4-dihydro-8-methoxy-7-(3-methyl-1-piperazinyl)-4-oxo-3-quinolinecarboxylic acid]: the hygroscopicity result in data set [2] is recorded as “hygroscopic”.

As to `COc1c(N2CCNC(C)C2)c(F)cc2c(=O)c(C(=O)O)cn(C3CC3)c12` (racemic) [pentahydrate, (±)-1-cyclopropyl-6-fluoro-1,4-dihydro-8-methoxy-7-(3-methyl-1-piperazinyl)-4-oxo-3-quinolinecarboxylic acid], the aqueous solubility result in data set [3] is “lowest”. In addition, the thermodynamic stability entry in data set [4] is recorded as “most thermodynamically stable form”.

With `COc1c(N2CCNC(C)C2)c(F)cc2c(=O)c(C(=O)O)cn(C3CC3)c12` (racemic) [sesquihydrate, (±)-1-cyclopropyl-6-fluoro-1,4-dihydro-8-methoxy-7-(3-methyl-1-piperazinyl)-4-oxo-3-quinolinecarboxylic acid], the hygroscopicity result in data set [2] is “less hygroscopic”. The stability in manufacturing result in data set [5] is reported as “more stable in manufacturing”.
